From patent US20080293795A1, “COMBINATION THERAPY WITH PARP INHIBITORS” (ABBOTT LABORATORIES, priority 2006, published 2008)
pKi: −log10 of the molar value.

Molecular target: T1, Recombinant Human Poly(ADP-Ribose) Polymerase (PARP) (Homo sapiens, UniProt P09874)
T1 construct: purchased Trevigen, Gaithersburg, Md; host or cells: E. coli
Test: PARP1 inhibition assay ([3H]-NAD+, biotinylated histone H1, FlashPlate/SPA)
Type: biochemical
Conditions: from inhibition curves at various substrate concentrations
Procedure: Nicotinamide[2,5′,8-3H]adenine dinucleotide and strepavidin SPA beads were purchased from Amersham Biosiences (UK) Recombinant Human Poly(ADP-Ribose) Polymerase (PARP) purified from E. coli and 6-Biotin-17-NAD^+, were purchase from Trevigen, Gaithersburg, Md. NAD^+, Histone, aminobenzamide, 3-amino benzamide and Calf Thymus DNA (dcDNA) were purchased from Sigma, St. Louis, Mo. […] Biotinylated histone H1 was prepared by treating the protein with Sulfo-NHS-LC-Biotin from Pierce Rockford, Ill. […] Streptavidin coated (FlashPlate Plus) microplates were purchased from Perkin Elmer, Boston, Mass.
PARP1 assay was conducted in PARP assay buffer containing 50 mM Tris pH 8.0, 1 mM DTT, 4 mM MgCl2. […] 170 μl of the stopped reaction mixtures were transferred to streptavidin Flash Plates, incubated for 1 hr, and counted using a TopCount microplate scintillation counter.

T1 sequence (P09874 whole entry): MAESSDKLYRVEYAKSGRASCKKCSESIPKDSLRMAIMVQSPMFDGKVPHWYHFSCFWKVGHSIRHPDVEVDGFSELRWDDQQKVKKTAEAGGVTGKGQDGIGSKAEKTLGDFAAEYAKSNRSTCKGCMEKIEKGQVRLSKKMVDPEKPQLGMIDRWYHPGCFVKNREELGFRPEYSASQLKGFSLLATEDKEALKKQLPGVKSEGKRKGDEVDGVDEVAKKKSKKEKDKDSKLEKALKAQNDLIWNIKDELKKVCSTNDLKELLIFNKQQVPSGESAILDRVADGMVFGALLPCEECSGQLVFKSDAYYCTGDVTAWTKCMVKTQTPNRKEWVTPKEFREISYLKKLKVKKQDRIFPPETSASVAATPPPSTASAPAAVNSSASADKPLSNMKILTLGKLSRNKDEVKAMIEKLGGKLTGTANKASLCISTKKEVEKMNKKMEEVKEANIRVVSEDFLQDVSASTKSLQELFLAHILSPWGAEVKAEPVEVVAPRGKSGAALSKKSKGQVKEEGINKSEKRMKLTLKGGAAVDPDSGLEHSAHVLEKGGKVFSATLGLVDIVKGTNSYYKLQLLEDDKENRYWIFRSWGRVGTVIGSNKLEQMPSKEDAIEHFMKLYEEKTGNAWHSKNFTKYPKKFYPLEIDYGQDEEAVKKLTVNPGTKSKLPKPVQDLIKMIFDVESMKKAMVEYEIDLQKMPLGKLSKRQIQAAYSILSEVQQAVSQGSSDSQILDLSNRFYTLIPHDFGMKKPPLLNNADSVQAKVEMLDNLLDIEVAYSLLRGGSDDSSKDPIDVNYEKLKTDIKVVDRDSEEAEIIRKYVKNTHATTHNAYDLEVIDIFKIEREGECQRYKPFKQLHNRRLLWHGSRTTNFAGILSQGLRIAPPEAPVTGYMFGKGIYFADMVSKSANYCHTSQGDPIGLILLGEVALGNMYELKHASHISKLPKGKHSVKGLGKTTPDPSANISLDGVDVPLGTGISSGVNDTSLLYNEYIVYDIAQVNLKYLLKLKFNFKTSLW

Compound | pKi
CC1(c2nc3c(C(N)=O)cccc3[nH]2)CN(C2CCCCC2)C1 [2-(1-cyclohexyl-3-methylazetidin-3-yl)-1H-benzimidazole-4-carboxamide] | 8.25
NC(=O)c1cccc2[nH]c(C3CCN3C3CCC3)nc12 (stereo not shown) [2-(1-cyclobutylazetidin-2-yl)-1H-benzimidazole-4-carboxamide] | 7.10
CC(C)CN1CCC(c2nc3c(C(N)=O)cccc3[nH]2)C1 (stereo not shown) [2-(1-isobutylpyrrolidin-3-yl)-1H-benzimidazole-4-carboxamide] | 8.13
CC1(c2nc3c(C(N)=O)cccc3[nH]2)CCN(C2CCCCC2)C1 (stereo not shown) [2-(1-cyclohexyl-3-methylpyrrolidin-3-yl)-1H-benzimidazole-4-carboxamide] | 8.24
CC1(c2nc3c(C(N)=O)cccc3[nH]2)CCN1C1CCCC1 (stereo not shown) [2-(1-cyclopentyl-2-methylazetidin-2-yl)-1H-benzimidazole-4-carboxamide] | 7.51
CC1(c2nc3c(C(N)=O)cccc3[nH]2)CCN1C1CCC1 (stereo not shown) [2-(1-cyclobutyl-2-methylazetidin-2-yl)-1H-benzimidazole-4-carboxamide] | 7.48
NC(=O)c1cccc2[nH]c(C3CCN(C4CCC4)C3)nc12 (stereo not shown) [2-(1-cyclobutylpyrrolidin-3-yl)-1H-benzimidazole-4-carboxamide] | 8.17
CC1(c2nc3c(C(N)=O)cccc3[nH]2)CN(CC2CC2)C1 [2-[1-(cyclopropylmethyl)-3-methylazetidin-3-yl]-1H-benzimidazole-4-carboxamide] | 8.10
CC1(c2nc3c(C(N)=O)cccc3[nH]2)CCN(C2CCCC2)C1 (stereo not shown) [2-(1-cyclopentyl-3-methylpyrrolidin-3-yl)-1H-benzimidazole-4-carboxamide] | 8.47
NC(=O)c1cccc2[nH]c(C3CCN(C4CCOCC4)C3)nc12 (stereo not shown) [2-(1-tetrahydro-2H-pyran-4-ylpyrrolidin-3-yl)-1H-benzimidazole-4-carboxamide] | 8.09
CCN1CCCC1(C)c1nc2c(C(N)=O)cccc2[nH]1 (stereo not shown) [2-(1-ethyl-2-methylpyrrolidin-2-yl)-1H-benzimidazole-4-carboxamide] | 8.22
CCCN1CCC[C@@H]1c1nc2c(C(N)=O)cccc2[nH]1 [2-[(2R)-1-propylpyrrolidin-2-yl]-1H-benzimidazole-4-carboxamide] | 6.84
CCCN1CCC[C@H]1c1nc2c(C(N)=O)cccc2[nH]1 [2-[(2S)-1-propylpyrrolidin-2-yl]-1H-benzimidazole-4-carboxamide] | 6.89
CN(C)S(=O)(=O)N1CCC(c2nc3c(C(N)=O)cccc3[nH]2)CC1 [2-{1-[(dimethylamino)sulfonyl]piperidin-4-yl}-1H-benzimidazole-4-carboxamide] | 7.51
CCN1CCC[C@H]1c1nc2c(C(N)=O)cccc2[nH]1 [2-[(2S)-1-ethylpyrrolidin-2-yl]-1H-benzimidazole-4-carboxamide] | 7.31
NC(=O)c1cccc2[nH]c(C3CCN(Cc4ccncc4)C3)nc12 (stereo not shown) [2-[1-(pyridin-4-ylmethyl)pyrrolidin-3-yl]-1H-benzimidazole-4-carboxamide] | 7.85
CC(C)N1CCC[C@H]1c1nc2c(C(N)=O)cccc2[nH]1 [2-[(2S)-1-isopropylpyrrolidin-2-yl]-1H-benzimidazole-4-carboxamide] | 7.71
NC(=O)c1cccc2[nH]c(C3CN(C4CCCCC4)C3)nc12 [2-(1-cyclohexylazetidin-3-yl)-1H-benzimidazole-4-carboxamide] | 7.80
CN(C)S(=O)(=O)N1CC(c2nc3c(C(N)=O)cccc3[nH]2)C1 [2-{1-[(dimethylamino)sulfonyl]azetidin-3-yl}-1H-benzimidazole-4-carboxamide] | 7.80
CC(C)N1CCC[C@@H]1c1nc2cccc(C(N)=O)c2[nH]1 [2-[(2R)-1-isopropylpyrrolidin-2-yl]-1H-benzimidazole-4-carboxamide] | 7.89
CCCN1CCCC1(C)c1nc2c(C(N)=O)cccc2[nH]1 (stereo not shown) [2-(2-methyl-1-propylpyrrolidin-2-yl)-1H-benzimidazole-4-carboxamide] | 7.73
CC1(c2nc3c(C(N)=O)cccc3[nH]2)CN(C2CCC2)C1 [2-(1-cyclobutyl-3-methylazetidin-3-yl)-1H-benzimidazole-4-carboxamide] | 8.21
CC1(c2nc3c(C(N)=O)cccc3[nH]2)CCN1C1CCCCC1 (stereo not shown) [2-(1-cyclohexyl-2-methylazetidin-2-yl)-1H-benzimidazole-4-carboxamide] | 7.56
NC(=O)c1cccc2[nH]c(C3CCCN(C4CCCCC4)CC3)nc12 (stereo not shown) [2-(1-cyclohexylazepan-4-yl)-1H-benzimidazole-4-carboxamide] | 8.32
CC1(c2nc3c(C(N)=O)cccc3[nH]2)CCCN(C2CCCCC2)CC1 (stereo not shown) [2-(1-cyclohexyl-4-methylazepan-4-yl)-1H-benzimidazole-4-carboxamide] | 7.92
CC(C)CN1CCC(C)(c2nc3c(C(N)=O)cccc3[nH]2)C1 (stereo not shown) [2-(1-isobutyl-3-methylpyrrolidin-3-yl)-1H-benzimidazole-4-carboxamide] | 8.42

Compound | pKi
NC(=O)c1cccc2[nH]c(C3CCN(C4CCCCC4)C3)nc12 (stereo not shown) [2-(1-cyclohexylpyrrolidin-3-yl)-1H-benzimidazole-4-carboxamide] | 8.15
CC(C)CN1CC(C)(c2nc3c(C(N)=O)cccc3[nH]2)C1 [2-(1-isobutyl-3-methylazetidin-3-yl)-1H-benzimidazole-4-carboxamide] | 8.25
NC(=O)c1cccc2[nH]c(C3CN(C4CCOCC4)C3)nc12 [2-(1-tetrahydro-2H-pyran-4-ylazetidin-3-yl)-1H-benzimidazole-4-carboxamide] | 7.34
CCCN1CCC(C)(c2nc3c(C(N)=O)cccc3[nH]2)CC1 [2-(4-methyl-1-propylpiperidin-4-yl)-1H-benzimidazole-4-carboxamide] | 7.87
NC(=O)c1cccc2[nH]c([C@H]3CCCN3C3CCC3)nc12 [2-[(2R)-1-cyclobutylpyrrolidin-2-yl]-1H-benzimidazole-4-carboxamide] | 6.85
CCCN1CC(c2nc3c(C(N)=O)cccc3[nH]2)C1 [2-(1-propylazetidin-3-yl)-1H-benzimidazole-4-carboxamide] | 7.85
CC(C)N1CCC1c1nc2c(C(N)=O)cccc2[nH]1 (stereo not shown) [2-(1-isopropylazetidin-2-yl)-1H-benzimidazole-4-carboxamide] | 6.93
CCCN1CCC(c2nc3c(C(N)=O)cccc3[nH]2)C1 (stereo not shown) [2-(1-propylpyrrolidin-3-yl)-1H-benzimidazole-4-carboxamide] | 8.09
CC1(c2nc3c(C(N)=O)cccc3[nH]2)CCN(CC2CC2)C1 (stereo not shown) [2-[1-(cyclopropylmethyl)-3-methylpyrrolidin-3-yl]-1H-benzimidazole-4-carboxamide] | 8.30
NC(=O)c1cccc2[nH]c([C@@H]3CCCN3C3CCC3)nc12 [2-[(2S)-1-cyclobutylpyrrolidin-2-yl]-1H-benzimidazole-4-carboxamide] | 6.47
CC(CCc1ccccc1)N1CCC(c2nc3c(C(N)=O)cccc3[nH]2)C1 (stereo not shown) [2-[1-(1-methyl-3-phenylpropyl)pyrrolidin-3-yl]-1H-benzimidazole-4-carboxamide] | 7.88
CN(C)S(=O)(=O)N1CCC(C)(c2nc3c(C(N)=O)cccc3[nH]2)CC1 [2-{1-[(dimethylamino)sulfonyl]-4-methylpiperidin-4-yl}-1H-benzimidazole-4-carboxamide] | 8.06
CC(C)N1CCC(c2nc3c(C(N)=O)cccc3[nH]2)CC1 [2-(1-isopropylpiperidin-4-yl)-1H-benzimidazole-4-carboxamide] | 8.22
CC(C)CN1CC(c2nc3c(C(N)=O)cccc3[nH]2)C1 [2-(1-isobutylazetidin-3-yl)-1H-benzimidazole-4-carboxamide] | 7.84
CN(C)S(=O)(=O)N1CC(C)(c2nc3c(C(N)=O)cccc3[nH]2)C1 [2-{1-[(dimethylamino)sulfonyl]-3-methylazetidin-3-yl}-1H-benzimidazole-4-carboxamide] | 8.15
NC(=O)c1cccc2[nH]c(C3CCN(C4CCC4)CC3)nc12 [2-(1-cyclobutylpiperidin-4-yl)-1H-benzimidazole-4-carboxamide] | 8.20
CC1(c2nc3c(C(N)=O)cccc3[nH]2)CN(C2CCCC2)C1 [2-(1-cyclopentyl-3-methylazetidin-3-yl)-1H-benzimidazole-4-carboxamide] | 8.40
CC(CCc1ccccc1)N1CCC(C)(c2nc3c(C(N)=O)cccc3[nH]2)C1 (stereo not shown) [2-[3-methyl-1-(1-methyl-3-phenylpropyl)pyrrolidin-3-yl]-1H-benzimidazole-4-carboxamide] | 7.92
CC1(c2nc3c(C(N)=O)cccc3[nH]2)CN(C2CCOCC2)C1 [2-(3-methyl-1-tetrahydro-2H-pyran-4-ylazetidin-3-yl)-1H-benzimidazole-4-carboxamide] | 7.90
NC(=O)c1cccc2[nH]c(C3CN(C4CCC4)C3)nc12 [2-(1-cyclobutylazetidin-3-yl)-1H-benzimidazole-4-carboxamide] | 7.79
CCCN1CC(C)(c2nc3c(C(N)=O)cccc3[nH]2)C1 [2-(3-methyl-1-propylazetidin-3-yl)-1H-benzimidazole-4-carboxamide] | 8.16
CC1(c2nc3c(C(N)=O)cccc3[nH]2)CCN(Cc2ccncc2)C1 (stereo not shown) [2-[3-methyl-1-(pyridin-4-ylmethyl)pyrrolidin-3-yl]-1H-benzimidazole-4-carboxamide] | 8.05
CC1(c2nc3c(C(N)=O)cccc3[nH]2)CCN(C2CCC2)CC1 [2-(1-cyclobutyl-4-methylpiperidin-4-yl)-1H-benzimidazole-4-carboxamide] | 8.04
CC1(c2nc3c(C(N)=O)cccc3[nH]2)CCN(C2CCC2)C1 (stereo not shown) [2-(1-cyclobutyl-3-methylpyrrolidin-3-yl)-1H-benzimidazole-4-carboxamide] | 8.40
CC1(c2nc3c(C(N)=O)cccc3[nH]2)CCN(C2CCOCC2)C1 (stereo not shown) [2-(3-methyl-1-tetrahydro-2H-pyran-4-ylpyrrolidin-3-yl)-1H-benzimidazole-4-carboxamide] | 8.14
NC(=O)c1cccc2[nH]c(C3CN(CC4CC4)C3)nc12 [2-[1-(cyclopropylmethyl)azetidin-3-yl]-1H-benzimidazole-4-carboxamide] | 7.72
